Consider three molecules from patent publication EP2551257A1, “Co-crystals of agomelatine with co-crystal-formers” (Laboratorios del. Dr. Esteve, S.A., priority 2011, dated 2013).

The nature of series [1]: Intrinsic Dissolution Rate (IDR) test, USP apparatus 2 (paddles). The series is classed as physicochemical. Conditions: for IDR: 37°C, 100 rpm, 2 hours, calculated from slope of straight line; for Ratio: IDR of co-crystal relative to agomelatine. An excerpt:
The aim of this study was to measure intrinsic dissolution rate (IDR) of some crystalline forms of the present invention in order to compare them with the IDR of the agomelatine. Intrinsic dissolution rate is defined as the dissolution rate of pure substance under the condition of constant surface area.
Figures 20 and 21 show the results of intrinsic dissolution rate performed with co-crystals obtained in examples 4 and 5. The IDR behaviour of agomelatine and the co-crystal of agomelatine - gentisic acid (1:1), agomelatine - citric acid (1:1) from the present invention was tested in USP apparatus 2 (paddles) at 37°C and 100 rpm with 2 hours in a solution of 0,1 N HCl (figure 20) and 2 hours in a buffer solution at pH 6.8 (figure 21). The intrinsic dissolution rate was calculated from the slope of the straight line obtained.

The conditions of series [2]: cited from earlier work.
Series [3] relates to α, β adrenergic, histaminergic, cholinergic, dopaminergic and benzodiazepine receptors. Conditions: cited from earlier work.
In the next series the test system is monoamine uptake. Conditions: cited from earlier work.

The structures appear in SMILES notation. A value given as a limit tells only on which side of the number the result lay.

As to `COc1ccc2cccc(CCNC(C)=O)c2c1` [agomelatine, N-[2-(7-methoxynaphthalen-1-yl)ethyl]acetamide], the values for the IDR in series [1] (Media Buffer pH 6.8) and in series [1] (Media HCl 0.1M) were 0.0267 mg/cm^2·s and 0.0349 mg/cm^2·s, respectively. Moreover, the “solubility in various organic solvents” value in series [2] (96% ethanol, methanol, methylene chloride, freely soluble) was more than 100 mg/mL. Moreover, in series [2] (purified water, practically insoluble), the “solubility in purified water” value was < 0,1 mg/ml. The affinity result in series [3] is on record as “no affinity”. Also, the “effect on monoamine uptake” value in the series with monoamine uptake is listed as “no effect”.

`COc1ccc2cccc(CCNC(C)=O)c2c1` [agomelatine-citric acid (1:1) co-crystal]: in series [1] (Media Buffer pH 6.8), the Ratio was 1.76 and the IDR is reported as 0.0470 mg/cm^2·s. In addition, in series [1] (Media HCl 0.1M), the Ratio came out at 1.92 and the IDR is given as 0.0670 mg/cm^2·s.

For `COc1ccc2cccc(CCNC(C)=O)c2c1` [agomelatine - gentisic acid (1:1) co-crystal], the Ratio came out at 1.70 in series [1] (Media Buffer pH 6.8) and 1.28 in series [1] (Media HCl 0.1M). In addition, the IDR is on record as 0.0453 mg/cm^2·s in series [1] (Media Buffer pH 6.8) and 0.0447 mg/cm^2·s in series [1] (Media HCl 0.1M).
